Results reported in ChEMBL document CHEMBL1201862, “PubChem BioAssay data set” (2004).
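1) Cells in 96-well plates. 2) Compound, 48 h, 5 concentrations. 3) Linear interpolation between surrounding doses. 4) Unreached endpoint = highest concentration. Here, GI50 denotes the concentration required for 50% inhibition of growth.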 Active and inactive are the calls of the source. Rule as the data show it: active = GI50 up to about 1.1 µM and inactive = higher.

Legend:
Test in all cases: NCI tumour cell line growth inhibition, 48 h
[1] = test system: SNB-75
[2] = test system: MDA-MB-435
[3] = test system: Hs-578T
[4] = test system: HCC 2998
[5] = test system: MCF7
[6] = test system: PC-3
[7] = test system: DU-145
[8] = test system: MDA-N
[9] = test system: SR
[10] = test system: NCI-H522
[11] = test system: HOP-92
[12] = test system: CAKI-1
[13] = test system: HL-60
[14] = test system: SK-OV-3
[15] = test system: MDA-MB-231
[16] = test system: 786-0
[17] = test system: A498
[18] = test system: NCI/ADR-RES
[19] = test system: RXF 393

| SMILES | GI50 [1] | GI50 [2] | GI50 [3] | GI50 [4] | GI50 [5] | GI50 [6] | GI50 [7] | GI50 [8] | GI50 [9] | GI50 [10] | GI50 [11] | GI50 [12] | GI50 [13] | GI50 [14] | GI50 [15] | GI50 [16] | GI50 [17] | GI50 [18] | GI50 [19] |
| --- | --- | --- | --- | --- | --- | --- | --- | --- | --- | --- | --- | --- | --- | --- | --- | --- | --- | --- | --- |
| COC(=O)C1CCC(=O)N1C(c1ccc2c(c1)OCO2)c1cc(OC)c(OC)c(OC)c1 (configuration not stated) | > 100 µM (inactive) | > 100 µM (inactive) | > 100 µM (inactive) | > 100 µM (inactive) | > 100 µM (inactive) | > 100 µM (inactive) | > 100 µM (inactive) | > 100 µM (inactive) | > 100 µM (inactive) | 6.35 µM (inactive) | > 100 µM (inactive) | > 100 µM (inactive) | > 100 µM (inactive) | > 100 µM (inactive) | > 100 µM (inactive) | > 100 µM (inactive) | > 100 µM (inactive) | – | – |
| C[C@]12CC[C@H](O[C@@H]3O[C@H](CO[C@@H]4O[C@H](CO)[C@@H](O)[C@H](O)[C@H]4O)[C@@H](O)[C@H](O)[C@H]3O)C[C@@H]1CC[C@@H]1[C@@H]2CC[C@]2(C)[C@@H](C3=CC(=O)OC3)CC[C@]12O [UZARIN] | 28.4 µM (inactive) | 31.8 µM (inactive) | 19.5 µM (inactive) | 21.9 µM (inactive) | – | 28.2 µM (inactive) | 13.3 µM (inactive) | 29 µM (inactive) | 6.25 µM (inactive) | 7.91 µM (inactive) | 29.4 µM (inactive) | 13.7 µM (inactive) | 20.2 µM (inactive) | 35.3 µM (inactive) | > 80.2 µM (inactive) | 43.6 µM (inactive) | 24.9 µM (inactive) | 15.4 µM (inactive) | 12.5 µM (inactive) |
| CC#C[C@@]1(O)CCCC[C@@H]1O | > 100 µM (inactive) | – | – | > 100 µM (inactive) | – | – | – | – | – | > 100 µM (inactive) | > 100 µM (inactive) | – | > 100 µM (inactive) | > 100 µM (inactive) | – | > 100 µM (inactive) | > 100 µM (inactive) | – | > 100 µM (inactive) |
| Cc1cc(O)nc(NN2C(Cl)C(=O)C2c2cccc([N+](=O)[O-])c2)n1 (configuration not stated) | 28 µM (inactive) | – | – | 18.5 µM (inactive) | – | – | – | – | 16.9 µM (inactive) | – | 19.3 µM (inactive) | – | 13.5 µM (inactive) | – | – | – | – | – | 10 µM (inactive) |
| CCOC(=O)c1nc2ccc(C(F)(F)F)cc2nc1NCc1ccc(Cl)c(Cl)c1 | 14 µM (inactive) | 23.6 µM (inactive) | 20.8 µM (inactive) | – | 30.4 µM (inactive) | 22.8 µM (inactive) | – | 57.4 µM (inactive) | 37.9 µM (inactive) | 11.4 µM (inactive) | 14.6 µM (inactive) | 24.9 µM (inactive) | 41.5 µM (inactive) | 35.2 µM (inactive) | 30.2 µM (inactive) | 25.1 µM (inactive) | 30.2 µM (inactive) | 47.1 µM (inactive) | 24.4 µM (inactive) |
| COc1cccc(-c2[nH]c3cc4c(cc3c(=O)c2C(=O)O)OCO4)c1 | 84.1 µM (inactive) | 8.39 µM (inactive) | – | 32.8 µM (inactive) | 41 µM (inactive) | 57.5 µM (inactive) | 38.7 µM (inactive) | 9.84 µM (inactive) | 8.73 µM (inactive) | – | 27.5 µM (inactive) | 72.8 µM (inactive) | – | – | 57.5 µM (inactive) | 44.8 µM (inactive) | 34.4 µM (inactive) | 17.8 µM (inactive) | 39.2 µM (inactive) |
| Cc1c2c(n(CCN(C)C)c1C)NN=C(C#N)S2(=O)=O | > 100 µM (inactive) | > 100 µM (inactive) | > 100 µM (inactive) | > 100 µM (inactive) | > 100 µM (inactive) | > 100 µM (inactive) | > 100 µM (inactive) | > 100 µM (inactive) | – | – | – | – | – | > 100 µM (inactive) | > 100 µM (inactive) | > 100 µM (inactive) | – | > 100 µM (inactive) | – |
| O=c1[nH]c2cc(C(F)(F)F)ccc2nc1C(F)(F)F | 30.2 µM (inactive) | 34 µM (inactive) | – | 49.7 µM (inactive) | 53.6 µM (inactive) | 37.8 µM (inactive) | 33.8 µM (inactive) | 32.7 µM (inactive) | 55.8 µM (inactive) | 29.4 µM (inactive) | 16.6 µM (inactive) | 30.3 µM (inactive) | – | 30.4 µM (inactive) | 31.3 µM (inactive) | 37 µM (inactive) | 41.3 µM (inactive) | 37.9 µM (inactive) | 20.3 µM (inactive) |
| CCCSc1nc(COC(=O)NC)c(COC(=O)NC)n1C | > 91.2 µM (inactive) | – | – | > 100 µM (inactive) | 47.6 µM (inactive) | – | – | – | – | – | > 71 µM (inactive) | 48.1 µM (inactive) | 43.9 µM (inactive) | > 100 µM (inactive) | – | – | > 62.7 µM (inactive) | > 100 µM (inactive) | 37.4 µM (inactive) |
| CN=S(=O)(C[C@]1(O)CC2OC1C1OC(C)(C)OC21)c1ccccc1 (some centres not stated) | 83 µM (inactive) | – | – | > 100 µM (inactive) | – | – | – | – | – | > 100 µM (inactive) | > 100 µM (inactive) | > 100 µM (inactive) | > 100 µM (inactive) | > 100 µM (inactive) | – | > 100 µM (inactive) | > 100 µM (inactive) | – | > 100 µM (inactive) |
| COc1ccc(-c2cc(=O)c3c(OC)c(O)c(OC)cc3o2)cc1 | 21.8 µM (inactive) | 42.4 µM (inactive) | 40.4 µM (inactive) | 47 µM (inactive) | 42.7 µM (inactive) | – | 49.3 µM (inactive) | 47.3 µM (inactive) | 73.8 µM (inactive) | 17.9 µM (inactive) | 20.9 µM (inactive) | 85.5 µM (inactive) | 52 µM (inactive) | 50.7 µM (inactive) | 23.6 µM (inactive) | 47.4 µM (inactive) | 30 µM (inactive) | 29.1 µM (inactive) | 36.6 µM (inactive) |
| O=[N+]([O-])/C=C/c1cn(CCCCCCCCn2cc(/C=C/[N+](=O)[O-])c3ccccc32)c2ccccc12 | > 10 µM (inactive) | 0.327 µM (active) | 6.92 µM (inactive) | 7.59 µM (inactive) | – | > 10 µM (inactive) | > 10 µM (inactive) | 0.61 µM (active) | > 10 µM (inactive) | > 10 µM (inactive) | > 10 µM (inactive) | 0.689 µM (active) | > 10 µM (inactive) | > 10 µM (inactive) | > 10 µM (inactive) | > 10 µM (inactive) | > 10 µM (inactive) | > 10 µM (inactive) | > 10 µM (inactive) |
| O=C1c2ccccc2C(=O)c2cc(/N=N/c3c(O)ccc4ccccc34)ccc21 | > 100 µM (inactive) | > 100 µM (inactive) | 27.7 µM (inactive) | – | – | > 100 µM (inactive) | > 100 µM (inactive) | > 100 µM (inactive) | > 100 µM (inactive) | > 100 µM (inactive) | > 100 µM (inactive) | > 100 µM (inactive) | – | > 100 µM (inactive) | > 100 µM (inactive) | > 100 µM (inactive) | > 100 µM (inactive) | > 100 µM (inactive) | > 100 µM (inactive) |
| CC1(C)C2CCC3(OCCO3)C1C1OC12 (configuration not stated) | 41.4 µM (inactive) | – | – | – | – | – | – | – | – | > 100 µM (inactive) | > 100 µM (inactive) | 44.3 µM (inactive) | > 100 µM (inactive) | > 100 µM (inactive) | – | > 100 µM (inactive) | > 100 µM (inactive) | – | > 100 µM (inactive) |
